Test results: US10336762B2 (priority 2017, dated 2019)
Like-named read-outs stand apart in the source and are kept apart here.

What was measured:
TNFα = test: cells; assay type: cell-based, human; conditions: LPS-stimulated human monocytes, read-out: EC50 TNF
IRAK4 enzyme = IRAK4 enzyme (Homo sapiens (Human), UniProt Q9NWZ3); test: biochemical; assay type: biochemical; conditions: IRAK4 enzyme, 500 μM ATP
[1] = Homo sapiens, Monocyte, TNFα content
[2] = Homo sapiens, Monocyte, TNFα by TR-FRET

Sequence of IRAK4 enzyme (Q9NWZ3 whole entry): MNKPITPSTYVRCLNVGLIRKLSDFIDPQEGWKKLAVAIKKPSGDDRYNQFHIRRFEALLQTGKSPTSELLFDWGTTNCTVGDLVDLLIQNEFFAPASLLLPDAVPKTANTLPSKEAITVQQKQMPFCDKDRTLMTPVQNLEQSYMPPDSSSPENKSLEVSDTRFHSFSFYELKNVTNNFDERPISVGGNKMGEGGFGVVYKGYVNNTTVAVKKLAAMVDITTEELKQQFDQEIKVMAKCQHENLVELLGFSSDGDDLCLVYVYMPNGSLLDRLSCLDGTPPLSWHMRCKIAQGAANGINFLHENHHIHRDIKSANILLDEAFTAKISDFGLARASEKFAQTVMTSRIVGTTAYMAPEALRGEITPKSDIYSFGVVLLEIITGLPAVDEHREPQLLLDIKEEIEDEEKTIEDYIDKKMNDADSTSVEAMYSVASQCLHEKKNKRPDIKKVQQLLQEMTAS

CC(C)(O)[C@H](F)CNC(=O)c1cnc(-c2ccc3cc(C#N)cnn23)cc1NCCCCS(C)(=O)=O [Example 438, (R)-6-(3-cyanopyrrolo[1,2-b]pyridazin-7-yl)-N-(2-fluoro-3-hydroxy-3-methylbutyl)-4-((4-(methylsulfonyl)butyl)amino)nicotinamide]
EC50 (TNFα; [1]): 135 nM | IC50 (IRAK4 enzyme; TR-FRET (HTRF)): 1 nM

COC(=O)NC12CCC(Nc3cc(-c4ccc5cc(C#N)cnn45)ncc3C(=O)NC[C@@H](F)C(C)(C)O)(CC1)CC2 [Example 311, (R)-methyl (4-((2-(3-cyano-pyrrolo[1,2-b]pyridazin-7-yl)-5-((2-fluoro-3-hydroxy-3-methylbutyl)carbamoyl)pyridin-4-yl)amino)bicyclo[2.2.2]octan-1-yl)carbamate]
EC50 (TNFα; [1]): 15 nM | IC50 (IRAK4 enzyme; TR-FRET): < 1 nM

COc1cncc(Nc2cc(-c3ccc4cc(C#N)cnn34)ncc2C(=O)NC[C@@H](F)C(C)(C)O)n1 [Example 842, (R)-6-(3-cyanopyrrolo[1,2-b]pyridazin-7-yl)-N-(2-fluoro-3-hydroxy-3-methylbutyl)-4-((6-methoxypyrazin-2-yl)amino)nicotinamide]
EC50 (TNFα; [2]): 42 nM | IC50 (IRAK4 enzyme; TR-FRET): < 1 nM

COC(=O)N[C@H]1CC[C@H](Nc2cc(-c3ccc4cc(C#N)cnn34)ncc2C(=O)NCC#N)CC1 [Example 268, Methyl ((1R,4R)-4-((5-((cyanomethyl)carbamoyl)-2-(3-cyanopyrrolo[1,2-b]pyridazin-7-yl)pyridin-4-yl)amino)cyclohexyl)carbamate]
EC50 (TNFα; [1]): 29 nM | IC50 (IRAK4 enzyme; TR-FRET): < 1 nM

CC(C)(C)C(=O)N[C@H]1CC[C@H](Nc2cc(-c3ccc4cc(C#N)cnn34)ncc2C(=O)NC[C@@H](F)C(C)(C)O)CC1 [Example 296, 6-(3-cyanopyrrolo[1,2-b]pyridazin-7-yl)-N-((R)-2-fluoro-3-hydroxy-3-methylbutyl)-4-(((1r,4R)-4-pivalamidocyclohexyl)amino)nicotinamide]
EC50 (TNFα; [1]): 391 nM | IC50 (IRAK4 enzyme; TR-FRET): 3 nM

CC(=O)NC12CC(Nc3cc(-c4ccc5cc(C#N)cnn45)ncc3C(=O)NC[C@@H](F)C(C)(C)O)(C1)C2 [Example 508, (R)-4-((3-acetamidobicyclo[1.1.1]pentan-1-yl)amino)-6-(3-cyanopyrrolo[1,2-b]pyridazin-7-yl)-N-(2-fluoro-3-hydroxy-3-methyl-butyl)nicotinamide]
EC50 (TNFα; [1]): 22 nM | IC50 (IRAK4 enzyme; TR-FRET (HTRF)): < 1 nM

CC(C)(O)[C@H](F)CNC(=O)c1cnc(-c2ccc3cc(C#N)cnn23)cc1Nc1ccc(-c2cnco2)nc1 [Example 625, (R)-6-(3-cyanopyrrolo[1,2-b]pyridazin-7-yl)-N-(2-fluoro-3-hydroxy-3-methylbutyl)-4-((6-(oxazol-5-yl)pyridin-3-yl)amino)nicotinamide]
EC50 (TNFα; [1]): 22 nM | IC50 (IRAK4 enzyme; TR-FRET (HTRF)): < 1 nM

CC(C)(O)[C@H](F)CNC(=O)c1cnc(-c2ccc3cc(C#N)cnn23)cc1Nc1ccc(C#N)nc1 [Example 603, (R)-4-((6-cyanopyridin-3-yl)amino)-6-(3-cyano-pyrrolo[1,2-b]pyridazin-7-yl)-N-(2-fluoro-3-hydroxy-3-methylbutyl)nicotinamide]
EC50 (TNFα; [1]): 81 nM | IC50 (IRAK4 enzyme; TR-FRET (HTRF)): 1 nM

N#Cc1cnn2c(-c3cc(NC45CCC(O)(CC4)CC5)c(C(=O)NCC4CCO4)cn3)ccc2c1 (stereo not shown) [Example 616, 6-(3-cyanopyrrolo[1,2-b]pyridazin-7-yl)-4-((4-hydroxybicyclo[2.2.2]octan-1-yl)amino)-N-(oxetan-2-ylmethyl) nicotinamide]
EC50 (TNFα; [1]): 144 nM | IC50 (IRAK4 enzyme; TR-FRET (HTRF)): 2 nM

CN(C)c1ncc(Nc2cc(-c3ccc4cc(C#N)cnn34)ncc2C(=O)NC[C@@H](F)C(C)(C)O)cn1 [Example 669, (R)-6-(3-cyanopyrrolo[1,2-b]pyridazin-7-yl)-4-((2-(dimethylamino)pyrimidin-5-yl)amino)-N-(2-fluoro-3-hydroxy-3-methylbutyl) nicotinamide]
EC50 (TNFα; [1]): 4 nM | IC50 (IRAK4 enzyme; TR-FRET (HTRF)): < 1 nM

C[C@]1(O)C[C@H](Nc2cc(-c3ccc4cc(C#N)cnn34)ncc2C(=O)NCC#N)C1 [Example 389, N-(cyanomethyl)-6-(3-cyanopyrrolo[1,2-b]pyridazin-7-yl)-4-(((1r,3r)-3-hydroxy-3-methylcyclobutyl)amino) nicotinamide]
EC50 (TNFα; [1]): 137 nM | IC50 (IRAK4 enzyme; TR-FRET): 3 nM

CC(C)Nc1cc(-c2ccc3cc(C#N)cnn23)ncc1C(=O)NCC1CCS(=O)(=O)CC1 [Example 121, 6-(3-cyanopyrrolo[1,2-b]pyridazin-7-yl)-N-((1,1-dioxidotetrahydro-2H-thiopyran-4-yl)methyl)-4-(isopropylamino) nicotinamide]
EC50 (TNFα; [1]): 365 nM | IC50 (IRAK4 enzyme; TR-FRET): 7 nM

COc1ccc(Nc2cc(-c3ccc4cc(C#N)cnn34)ncc2C(=O)NC[C@@H](F)C(C)(C)O)nc1 [Example 667, (R)-6-(3-cyanopyrrolo[1,2-b]pyridazin-7-yl)-N-(2-fluoro-3-hydroxy-3-methylbutyl)-4-((5-methoxypyridin-2-yl)amino)nicotinamide]
EC50 (TNFα; [1]): 45 nM | IC50 (IRAK4 enzyme; TR-FRET (HTRF)): < 1 nM

CC(C)(O)[C@H](F)CNC(=O)c1cnc(-c2ccc3cc(C#N)cnn23)cc1Nc1ccc(-n2ccnc2)cc1 [Example 767, (R)-4-((4-(1H-imidazol-1-yl)phenyl)amino)-6-(3-cyanopyrrolo[1,2-b]pyridazin-7-yl)-N-(2-fluoro-3-hydroxy-3-methylbutyl)nicotinamide]
EC50 (TNFα; [1]): 35 nM | IC50 (IRAK4 enzyme; TR-FRET (HTRF)): < 1 nM

CC(C)Nc1cc(-c2ccc3cc(C#N)cnn23)ncc1C(=O)NCCC(C)(N)C(F)F (stereo not shown) [Example 555, N-(3-amino-4,4-difluoro-3-methylbutyl)-6-(3-cyano-pyrrolo[1,2-b]pyridazin-7-yl)-4-(isopropylamino) nicotinamide]
EC50 (TNFα; [1]): 95 nM | IC50 (IRAK4 enzyme; TR-FRET (HTRF)): 1 nM

CC(C)C(=O)NC[C@H]1C[C@H](Nc2cc(-c3ccc4cc(C#N)cnn34)ncc2C(=O)NC[C@@H](F)C(C)(C)O)C1 [Example 938, 6-(3-cyanopyrrolo[1,2-b]pyridazin-7-yl)-N-((R)-2-fluoro-3-hydroxy-3-methylbutyl)-4-(((1r,3R)-3-(isobutyramidomethyl)cyclobutyl)amino) nicotinamide]
EC50 (TNFα; [2]): 68 nM | IC50 (IRAK4 enzyme; TR-FRET): 1 nM

CC(C)(O)[C@H](F)CNC(=O)c1cnc(-c2ccc3cc(C#N)cnn23)cc1Nc1cnn([C@@H]2CNC[C@@H]2F)c1 [Example 883, 6-(3-cyanopyrrolo[1,2-b]pyridazin-7-yl)-N-((R)-2-fluoro-3-hydroxy-3-methylbutyl)-4-((1-((3R,4S)-4-fluoro-pyrrolidin-3-yl)-1H-pyrazol-4-yl)amino) nicotinamide]
EC50 (TNFα; [2]): 90 nM | IC50 (IRAK4 enzyme; TR-FRET): < 1 nM

CC(C)(O)[C@H](F)CNC(=O)c1cnc(-c2ccc3cc(C#N)cnn23)cc1Nc1cnn([C@@H]2CCN(C3COC3)C2)c1 [Example 206, 6-(3-cyanopyrrolo[1,2-b]pyridazin-7-yl)-N-((R)-2-fluoro-3-hydroxy-3-methylbutyl)-4-((1-((R)-1-(oxetan-3-yl)pyrrolidin-3-yl)-1H-pyrazol-4-yl)amino)nicotinamide]
EC50 (TNFα; [1]): 133 nM | IC50 (IRAK4 enzyme; TR-FRET): 1 nM

CC(C)(O)[C@H](F)CNC(=O)c1cnc(-c2ccc3cc(C#N)cnn23)cc1Nc1cnc2c(c1)COCC2 [Example 862, (R)-6-(3-cyanopyrrolo[1,2-b]pyridazin-7-yl)-4-((7,8-dihydro-5H-pyrano[4,3-b]pyridin-3-yl)amino)-N-(2-fluoro-3-hydroxy-3-methylbutyl)nicotinamide]
EC50 (TNFα; [2]): 46 nM | IC50 (IRAK4 enzyme; TR-FRET): < 1 nM

CN1CC(C(=O)NC[C@H]2C[C@H](Nc3cc(-c4ccc5cc(C#N)cnn45)ncc3C(=O)NC[C@@H](F)C(C)(C)O)C2)C1 [Example 795, 6-(3-cyanopyrrolo[1,2-b]pyridazin-7-yl)-N-((R)-2-fluoro-3-hydroxy-3-methylbutyl)-4-(((1r,3R)-3-((1-methylazetidine-3-carboxamido)methyl)cyclobutyl)amino) nicotinamide]
EC50 (TNFα; [1]): > 10000 nM | IC50 (IRAK4 enzyme; TR-FRET (HTRF)): 7 nM

COCCNC(=O)C12CCC(Nc3cc(-c4ccc5cc(C#N)cnn45)ncc3C(=O)NC[C@@H](F)C(C)(C)O)(CC1)CC2 [Example 397, (R)-6-(3-cyanopyrrolo[1,2-b]pyridazin-7-yl)-N-(2-fluoro-3-hydroxy-3-methylbutyl)-4-((4-((2-methoxyethyl)carbamoyl)bicyclo[2.2.2]octan-1-yl)amino)nicotinamide]
EC50 (TNFα; [1]): 30 nM | IC50 (IRAK4 enzyme; TR-FRET (HTRF)): 1 nM

CC(C)(O)[C@H](F)CNC(=O)c1cnc(-c2ccc3cc(C#N)cnn23)cc1NC1C2CCC1CNC2 (single isomer, unassigned) [Example 27]
EC50 (TNFα; [1]): 175 nM | IC50 (IRAK4 enzyme; TR-FRET): 2 nM

CC(C)(O)[C@H](F)CNC(=O)c1cnc(-c2ccc3cc(C#N)cnn23)cc1Nc1cnn([C@@H]2CCNC2)c1 [Example 208, 6-(3-cyanopyrrolo[1,2-b]pyridazin-7-yl)-N-((R)-2-fluoro-3-hydroxy-3-methylbutyl)-4-((1-((R)-pyrrolidin-3-yl)-1H-pyrazol-4-yl)amino) nicotinamide]
EC50 (TNFα; [1]): 92 nM | IC50 (IRAK4 enzyme; TR-FRET): < 1 nM

Cc1ncc(C2CCC(Nc3cc(-c4ccc5cc(C#N)cnn45)ncc3C(=O)NC[C@@H](F)C(C)(C)O)CC2)o1 (single isomer, unassigned) [Example 646]
EC50 (TNFα; TNFα content): 15 nM | IC50 (IRAK4 enzyme; TR-FRET (HTRF)): < 1 nM

CC(C)(O)[C@H](F)CNC(=O)c1cnc(-c2ccc3cc(C#N)cnn23)cc1N[C@H]1CC[C@H](NC(=O)OC2COC2)CC1 [Example 280, oxetan-3-yl ((1R,4r)-4-((2-(3-cyanopyrrolo[1,2-b]pyridazin-7-yl)-5-(((R)-2-fluoro-3-hydroxy-3-methylbutyl)carbamoyl)pyridin-4-yl)amino)cyclo-hexyl)carbamate]
EC50 (TNFα; [1]): 55 nM | IC50 (IRAK4 enzyme; TR-FRET): 1 nM

CCc1ncc(Nc2cc(-c3ccc4cc(C#N)cnn34)ncc2C(=O)NC[C@@H](F)C(C)(C)O)cn1 [Example 680, (R)-6-(3-cyanopyrrolo[1,2-b]pyridazin-7-yl)-4-((2-ethylpyrimidin-5-yl)amino)-N-(2-fluoro-3-hydroxy-3-methylbutyl)nicotinamide]
EC50 (TNFα; [1]): 15 nM | IC50 (IRAK4 enzyme; TR-FRET (HTRF)): < 1 nM
